The values below come from US10091997B2, “Composition for inhibition of insect host sensing” (Vanderbilt University, priority 2010, dated 2018).

The structures appear in SMILES notation.

Assay [1] has as its target T1, rat transient receptor potential vanilloid 1 (rTRPV1) (Rattus norvegicus, UniProt O35433).
T1 construct: expressed in transfected cells
Kind of assay: whole-cell patch clamp, HEK cells stably expressing rTRPV1. The format is cell-based. For orientation: The patch-clamp technique gives a direct electrical read-out from membranes.
From the text: To determine the broad-spectrum specificity of VUAA1, the inventors tested VUAA1 on another non-selective cation channel, transient receptor potential vanilloid receptor 1 (TRPV1) (Caterina, 1997; Bohlen, 2010).

Assay [2] has as its system AgORco+AgOR10. Nature of the assay: whole-cell patch clamp, HEK293 cells expressing AgORco+AgOR10. The format is cell-based, Anopheles gambiae. As to conditions: AgORco+AgOR10 cells. As to the method: Currents from OR-expressing HEK293 cells were amplified with an Axopatch 200b Amplifier (Axon Instruments) and digitized through a Digidata 1322A (Axon Instruments). Electrophysiological data was recorded and analyzed using pCLAMP 10 (Axon Instruments). Electrodes were fabricated from quartz tubing (Sutter Instruments) and pulled to 4-6 MΩ for whole cell recording. Electrodes were filled with internal solution (120 mM KCl, 30 mM D-glucose, 10 mM HEPES, 2 mM MgCl2, 1.1 mM EGTA, and 0.1 CaCl2 (pH 7.35, 280 mOsm). External (bath) solution contained 130 mM NaCl, 34 mM D-glucose, 10 mM HEPES, 1.5 mM CaCl2, 1.3 mM KH2PO4, and 0.5 MgSO4 (pH 7.35, 300 mOsm). Compounds were diluted in external solution and locally perfused to the recording cell using Perfusion Pencil (Automate Scientific) and controlled by a ValveLink 8.2 controller (Automate Scientific). Whole cell recordings were sampled at 10 kHz and filtered at 5 kHz. Outside-out patches were obtained using 10-15MΩ electrodes pulled from standard glass capillaries (World Precision Instruments) and fire-polished with an MF-830 micro forge (Narishige). Single channel recordings were sampled at 20 kHz. Recordings were reduced to 1 kHz and low-pass filtered at 500 Hz for display and analysis using QuB (SUNY at Buffalo).
To test the hypothesis that VUAA1 directly agonized AgORco, whole-cell patch clamp responses were examined in AgORco+AgOR10 expressing cells as well HEK293 cells stably expressing AgORco alone. […] The VUAA1-dependent currents in AgORco+AgOR10 cells resembled those resulting from application of benzaldehyde, an orthosteric agonist of AgOR10 (FIG. 3C) (Wang, 2010; Carey, 2010). AgORco+AgOR10 cells were more sensitive to VUAA1 than AgORco cells, producing inward currents at −5.0 log M, a concentration at which AgORco had no response. […] To investigate the specificity of VUAA1 agonism, the inventors transiently transfected HEK cells with the AgORco orthologs of Drosophila melanogaster and Heliothis virescens, DmOR83b and HvOR2 respectively.

The target of assay [3] is T2, DmOR83b (Drosophila melanogaster, UniProt Q9VNB5).
T2 construct: expressed in transfected cells; host or cells: Flp-In T-REx 293 (HEK), transient, pCI vector, GFP co-transfected
T2 sequence (Q9VNB5 1-486): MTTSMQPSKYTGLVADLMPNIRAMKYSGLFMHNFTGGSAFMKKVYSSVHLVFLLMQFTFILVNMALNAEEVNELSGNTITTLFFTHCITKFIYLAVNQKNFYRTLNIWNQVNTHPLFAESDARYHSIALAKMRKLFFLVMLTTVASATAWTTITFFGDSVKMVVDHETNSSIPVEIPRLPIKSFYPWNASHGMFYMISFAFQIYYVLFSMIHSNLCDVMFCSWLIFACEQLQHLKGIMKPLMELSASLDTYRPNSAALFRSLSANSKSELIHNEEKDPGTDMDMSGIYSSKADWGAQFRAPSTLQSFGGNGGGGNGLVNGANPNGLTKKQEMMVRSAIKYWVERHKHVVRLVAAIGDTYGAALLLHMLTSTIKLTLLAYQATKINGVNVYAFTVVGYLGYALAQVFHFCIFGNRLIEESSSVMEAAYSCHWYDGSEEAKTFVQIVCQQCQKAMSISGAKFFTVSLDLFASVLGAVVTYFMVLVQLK
Nature of the assay: whole-cell patch clamp, HEK cells transiently transfected with DmOR83b. In kind it is cell-based. As to conditions: HEK cells expressing DmOR83b, −60 mV. The source says: For transient transfections, ORs were cloned into pCI (Promega) and transfected into Flp-In™ T-REx™293 cell lines (Invitrogen) with Fu GENE6 (Roche). For the creation of stable cell lines, a cell culture expression vector capable of expressing AgORco in conjunction with a conventional OR, pcDNA5/FRT/TO (Invitrogen) was modified to create two individual expression cassettes each under the control of a separate CMV/TetO2 promoter and a BGH poly-adenylation signal. Cells (as above) were transfected with the modified pcDNA5 plasmid along with POG44 (a Flp recombinase expression plasmid) to facilitate site-specific recombination. Stable cell lines were selected using Hygromycin B (Invitrogen). Cells were maintained in DMEM (Invitrogen) supplemented with 10% Tetracycline-free FBS (HyClone) and 15 μg/ml Blasticidin. […] Baseline readings were taken for 20 s before automated addition of compound previously diluted in DMSO and assay buffer. […]
Currents from OR-expressing HEK293 cells were amplified with an Axopatch 200b Amplifier (Axon Instruments) and digitized through a Digidata 1322A (Axon Instruments). Electrophysiological data was recorded and analyzed using pCLAMP 10 (Axon Instruments). […]

T1 sequence (O35433 whole entry): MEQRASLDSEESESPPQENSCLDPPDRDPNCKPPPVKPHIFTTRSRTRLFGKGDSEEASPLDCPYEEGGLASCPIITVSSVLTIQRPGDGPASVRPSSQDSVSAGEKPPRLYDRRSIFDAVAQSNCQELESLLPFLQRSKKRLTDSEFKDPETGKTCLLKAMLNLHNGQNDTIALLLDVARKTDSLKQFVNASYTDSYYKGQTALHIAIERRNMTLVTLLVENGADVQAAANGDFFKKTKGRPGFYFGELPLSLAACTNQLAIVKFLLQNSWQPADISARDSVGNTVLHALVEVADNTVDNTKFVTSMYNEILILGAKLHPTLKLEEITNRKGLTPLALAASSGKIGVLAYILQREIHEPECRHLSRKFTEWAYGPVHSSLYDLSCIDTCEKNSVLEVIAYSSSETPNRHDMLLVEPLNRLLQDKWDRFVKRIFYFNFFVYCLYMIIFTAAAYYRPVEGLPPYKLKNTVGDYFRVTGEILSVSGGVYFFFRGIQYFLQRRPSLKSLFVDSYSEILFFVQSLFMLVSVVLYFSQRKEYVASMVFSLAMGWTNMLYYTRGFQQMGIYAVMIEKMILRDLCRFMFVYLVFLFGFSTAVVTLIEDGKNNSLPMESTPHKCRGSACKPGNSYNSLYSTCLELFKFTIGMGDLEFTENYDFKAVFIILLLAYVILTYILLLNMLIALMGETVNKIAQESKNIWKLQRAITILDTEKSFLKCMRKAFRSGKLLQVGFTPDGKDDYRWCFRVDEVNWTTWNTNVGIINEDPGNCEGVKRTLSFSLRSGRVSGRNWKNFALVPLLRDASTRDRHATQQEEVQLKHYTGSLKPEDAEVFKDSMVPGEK

For `CCc1ccc(NC(=O)CSc2nnc(-c3cccnc3)n2CC)cc1` [VUAA1], the figures for the whole-cell currents entry in assay [1], in assay [2] (clamped at −60 mV) and in assay [3] were “did not elicit currents”, “concentration-dependent inward currents” and “robust inward currents”, respectively. Further, in assay [2] (whole-cell), the “concentration producing inward currents” value is listed as −5.0 log M.
